From the NIST ThermoML archive (doi:10.1021/je900643r)
± gives the expanded uncertainty stated by the source.

Tests used:
[1] = 298.15 K; for surface tension liquid-gas: Drop volume; for mass density: 101.33 kPa, Liquid
[2] = xn = mol fraction of the nth substance listed; settings: 298.15 K; for surface tension liquid-gas: Drop volume; for mass density: 101 kPa, Liquid

Cc1ccc(C)cc1 [1,4-dimethylbenzene]
surface tension liquid-gas [1]: 27.7 ± 0.21 mN/m | mass density [1]: 856.51 ± 0.68 kg/m3

Cc1ccc(C)cc1 [1,4-dimethylbenzene] + CCCCCC
surface tension liquid-gas ([2]; x2 = 0.0535): 26.84 ± 0.2 mN/m | surface tension liquid-gas ([2]; x2 = 0.0718): 26.58 ± 0.2 mN/m | surface tension liquid-gas ([2]; x2 = 0.1265): 25.76 ± 0.19 mN/m | surface tension liquid-gas ([2]; x2 = 0.1341): 25.66 ± 0.19 mN/m | surface tension liquid-gas ([2]; x2 = 0.3083): 23.45 ± 0.17 mN/m | surface tension liquid-gas ([2]; x2 = 0.3397): 23.1 ± 0.17 mN/m | surface tension liquid-gas ([2]; x2 = 0.399): 22.47 ± 0.17 mN/m | surface tension liquid-gas ([2]; x2 = 0.467): 21.81 ± 0.16 mN/m | surface tension liquid-gas ([2]; x2 = 0.492): 21.59 ± 0.16 mN/m | surface tension liquid-gas ([2]; x2 = 0.5267): 21.29 ± 0.16 mN/m | surface tension liquid-gas ([2]; x2 = 0.6034): 20.67 ± 0.15 mN/m | surface tension liquid-gas ([2]; x2 = 0.6394): 20.39 ± 0.15 mN/m | surface tension liquid-gas ([2]; x2 = 0.6877): 20.07 ± 0.15 mN/m | surface tension liquid-gas ([2]; x2 = 0.7826): 19.41 ± 0.14 mN/m | surface tension liquid-gas ([2]; x2 = 0.8126): 19.22 ± 0.14 mN/m | surface tension liquid-gas ([2]; x2 = 0.8798): 18.79 ± 0.14 mN/m | mass density ([2]; x2 = 0.0393): 848.42 ± 0.5 kg/m3 | mass density ([2]; x2 = 0.0869): 838.63 ± 0.51 kg/m3 | mass density ([2]; x2 = 0.1535): 824.96 ± 0.51 kg/m3 | mass density ([2]; x2 = 0.208): 813.78 ± 0.52 kg/m3 | mass density ([2]; x2 = 0.3063): 793.59 ± 0.54 kg/m3 | mass density ([2]; x2 = 0.3524): 784.21 ± 0.55 kg/m3 | mass density ([2]; x2 = 0.4333): 767.75 ± 0.56 kg/m3 | mass density ([2]; x2 = 0.4867): 756.93 ± 0.57 kg/m3 | mass density ([2]; x2 = 0.5404): 746.02 ± 0.58 kg/m3 | mass density ([2]; x2 = 0.5836): 737.32 ± 0.59 kg/m3 | mass density ([2]; x2 = 0.638): 726.41 ± 0.6 kg/m3 | mass density ([2]; x2 = 0.6903): 715.94 ± 0.61 kg/m3 | mass density ([2]; x2 = 0.7872): 696.69 ± 0.63 kg/m3 | mass density ([2]; x2 = 0.8297): 688.25 ± 0.64 kg/m3 | mass density ([2]; x2 = 0.8952): 675.28 ± 0.66 kg/m3 | mass density ([2]; x2 = 0.9417): 666.19 ± 0.67 kg/m3

CCCCCC [hexane]
surface tension liquid-gas [1]: 17.91 ± 0.13 mN/m | mass density [1]: 654.7 ± 0.7 kg/m3

CCCOC(=O)CC [propyl propanoate]
surface tension liquid-gas [1]: 24.1 ± 0.19 mN/m | mass density [1]: 875.53 ± 0.64 kg/m3
